Measured values reported in US20110028401A1, “CRIPTO BLOCKING MOLECULES AND THERAPEUTIC USES THEREOF” (CONSIGLIO NAZIONALE DELLE RICERCHE, priority 2009, published 2011).

How the values were obtained:
[1] = test system: R1 ESC; test: Dopaminergic differentiation of ESCs on PA6 stromal cells; assay type: cell-based, mouse
Protocol: For more specific dopaminergic differentiation, R1 ESC were plated on a confluent monolayer of mitomycin-C treated (2 hour, 20 ug/ml, Sigma) stromal PA6 cells (Riken Cell Bank) at a density of 100 cells/cm^2 and differentiated based on the methods of Barberi et al, 2003 with the following modifications, FIG. 7(a)^27. Cells were initially cultured in serum-replacement media (Dulbecco's modified Eagle medium with 15% serum replacement, 2 mM L-glutamine and 10 uM β-mercaptoethanol, Gibco-Invitrogen) containing Noggin (300 ng/ml, R&D Systems). After 5 days the media was replenished and supplemented with Noggin plus morphogens fibroblast growth factor-8 (FGF8, 100 ng/ml) and Sonic Hedgehog (Shh, 500 ng/ml), previously shown to be important in midbrain DA neuron development. At day 8, cultures were changed into N2 media (a 1:1 mixture of F12 and MEM with 15 mM HEPES buffer, 1 mM glutamine, 6 mg/ml glucose (Sigma-Aldrich), 3 mg/ml Albumax and N2 supplement (all purchased from Invitrogen)) supplemented with FGF2 (20 ng/ml), Shh, FGF8 and Wnt5a (previously shown to be important in the differentiation of dopaminergic precursors in vitro and in vivo^25, 56. Finally at day 11, cultures were exposed to survival factors brain derived neurotrophic factor (BDNF, 30 ng/ml), glial derived neurotrophic factor (GDNF, 30 ng/ml) and ascorbic acid (AA, 100 uM). In addition, peptides (Control peptide, CP; Dimer peptide, DP or Cripto Blocking peptide, Cripto BP, 12.5 uM) were added to the cultures from day 1-11. Peptides were replenished in the media every second day.
Hoescht counterstaining was used for visualization of all cells within the cultures. The proportion of neuron containing colonies (labeled for using the immature neuronal marker βIII-tubulin (Tuj1)) and the number of dopaminergic neurons/μm^2 colony (identified using a marker for the precursor enzyme in DA synthesis, TH) were counted. Differentiation experiments were performed in triplicate.
The authors next examined whether DA differentiation could be promoted. To this end, the authors used a DA differentiation protocol involving co-culturing on stromal cells^27, to which additional modifications were incorporated (FIG. 7a). In brief, ESCs were plated at low density onto stromal cells (PA6) for a period of 5 days, to promote neural induction. From day 0-8, cultures were treated with noggin to enhance neuronal induction. From day 8-11, cultures where changed into neuronal (N2) media in the presence of Shh and FGF-8 (for ventral midbrain patterning) and basic FGF (to expand the pool of DA precursors), as well as Wnt5a (involved in DA neuron differentiation in vitro and in vivo^25, 43). Control peptide (CP) or Cripto BP (BP) were added to the differentiating ESCs from day 1 to day 11. […]

[2] = test system: Parkinsonian rats; test: Amphetamine-induced rotational behaviour of ESC-grafted Parkinsonian rats; assay type: in vivo, rat; conditions: for improvement in amphetamine-induced rotations: pre-treated ESCs + peptide infusion
Excerpt: Thirty-seven adult male Sprague Dawley rats (250-350 g; from ARC, Australia) were housed and treated according to the guidelines of the Australian and Howard Florey Institute animal ethics committee (07-030). Animals received unilateral stereotaxic injections of 6-OHDA into the substantia nigra pars compacta (SNpc) to create a complete lesion of the midbrain DA neurons, as previously described^29. Lesioned animals were selected for transplantation based on their response to amphetamine induced rotational behaviour as previously described^29. Animals making greater than 6 rotations/min (lesion greater than 80%) were selected for grafting.
Two days prior to grafting animals began cyclosporine-A immune suppression (10 mg/kg). Fourteen days post-lesioning selected animals (determined by behavioural rotations) were again anesthetized and stereotaxically injected with 1 μl of cell suspension at each of the 4 sites as previously described^29. Stereotaxic coordinates of 1st & 2nd Injection (from bregma): anterior 0.2 mm, lateral 3.0 mm, ventral 4.5 and 5.0 mm; 3rd & 4th Injection, anterior 1.0 mm, lateral 2.5 mm, ventral 4.5 and 5.0 mm; incisor bar 0 mm^57). ESCs were differentiated as outlined in FIG. 7a. In brief, ESC colonies were dissected away from the stromal feeder layer and dissociated using collagenase/dispase with agitation (700 μg/ml, Roche, for 20 min, 80 rpm). Cells were subsequently resuspended at a density of 3,000 cells/μl ready for grafting. Five rats received Sham injections (4 μl N2 media, 1 μl/site), 16 rats received a total of 12,000 ESCs (4×1 μl grafts) pre-treated with the Control peptide (of which 9 of these animals also received infusion of the Control peptide) and a further 16 rats received grafts pretreated with the Cripto blocking peptide (9 animals receiving infusion of the Cripto BP).
The peptide infusion was performed by implantation of a cannula into the striatum (Alzet brain infusion kit) connected to a subcutaneously placed osmotic minipump (Alzet) prefilled with either CP or Cripto BP. Implantation was performed at the same time as the cell grafting. Cannula coordinates: anterior 0.5 mm, lateral 1.5 mm, ventral 5.0 mm; incisor bar 0 mm^57. The osmotic pump was capable of continuously delivering the peptide over a 3 weeks period (75 μM, 0.25 μl/hr) upon which time the animals were briefly anaesthetized with isoflurane and the pump removed through a small incision over the scapular region.

[3] = target: T1, Cripto protein (Mus musculus, UniProt P51865); test: ELISA binding of recombinant Cripto to plate-coated peptide; conditions: peptide coated at 50 μM; Cripto 50 to 200 ng/ml
T1 construct: made in house
Protocol: To evaluate the binding of Cripto BP to either Cripto or ALK-4 receptor, BP or control peptides (CP; 50 μM) were coated on the surface of a 96-well microtiter plate and incubated over night at 4° C. Wells were washed five times with PBS Tween (PBT) and the aspecific sites blocked for 3 h at RT with 1% Bovine Serum Albumin (BSA) in PBS, 180 μL/well. Wells were washed as above, and the recombinant form of either ALK-4-humanFc chimeric receptor or Cripto protein in PBT were added at the indicated concentrations and incubated for 1 h at 37° C. followed by 1 hr at RT. After washing with PBT, to evaluate the binding of Cripto to 26-23-23, rabbit anti-Cripto IgG (6 μg/ml) were added to the plates and incubated 1 h at 37° C. and 1 hr at RT. After washing in PBT, a goat anti-rabbit […] (Santa Crutz) was added to the plate (0.3 μg/ml) and incubated 1 h at RT. Finally, the plate was developed as reported above. To evaluate the binding of ALK4 to 26-23-23, the extracellular domain of ALK-4 receptor fused to human Fc (R&D Systems) was added at the indicated concentrations and a goat anti-human Fc (Jackson ImmunoResearch; 1:1000) was used.

[4] = peptide 12.5 uM day 1-11, 14 days on PA6

T1 sequence (P51865 18-156 limits assumed): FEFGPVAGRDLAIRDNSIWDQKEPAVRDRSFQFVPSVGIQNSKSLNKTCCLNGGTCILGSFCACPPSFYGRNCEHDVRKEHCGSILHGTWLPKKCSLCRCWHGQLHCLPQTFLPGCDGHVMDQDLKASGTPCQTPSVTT

`C[S+]([O-])CCC(N)C(=O)N[C@@H](CSCc1ccccc1)C(=O)N[C@@H](CSCc1ccccc1)C(=O)N[C@@H](CCCCNC(=O)[C@H](CSCc1ccccc1)NC(=O)[C@H](CSCc1ccccc1)NC(=O)[C@@H](N)CC[S+](C)[O-])C(=O)N[C@@H](CCCCNC(=O)[C@H](CCCCNC(=O)[C@H](CSCc1ccccc1)NC(=O)[C@H](CSCc1ccccc1)NC(=O)[C@@H](N)CC[S+](C)[O-])NC(=O)[C@H](CSCc1ccccc1)NC(=O)[C@H](CSCc1ccccc1)NC(=O)[C@@H](N)CC[S+](C)[O-])C(=O)NCC(=O)O` (stereo partly drawn) [Cripto BP] was tested, and the “yield of DA neurons derived from wildtype ESCs” value ([1]; Noggin and Wnt5a in conjunction with Cripto BP) was “enhanced further”, the “DA neurons per TH-ir colony” value ([1]; peptide 12.5 uM day 1-11) was 286 % greater than control and the “colonies immunoreactive for βIII-tubulin” value [1, 4] was 91%. For the same compound, the “proportion of colonies containing TH-ir DA neurons” value [1, 4] was 62%, the “functional improvement in rotational behaviour compared to shams” value ([2]; 12,000 ESCs pre-treated, without infusion) was “significant reductions in amphetamine induced rotational behaviour as early as week 2 post-grafting” and the “improvement in amphetamine-induced rotations” value [2] was “significantly improved functional recovery”. The “improvement in amphetamine-induced rotations” value ([2]; mean±SD) was 69.6±8.4%, the “reduction in amphetamine induced rotational behaviour” value ([2]; pre-treated ESCs without infusion, 8 weeks postgrafting, mean±SD) was 66.2±8.4% and the “binding of recombinant Cripto to immobilized peptide” value [3] was “specifically recognized the immobilized Cripto BP, in a dose-dependent manner”.
